Tests used:
Assay in all cases: IA-DTB cysteine engagement
Format in all cases: binding
[1] = molecular target: T1, NSUN2_C271 (Homo sapiens, UniProt Q08J23); details: 22Rv1 cells, relative to DMSO; for % engagement NSUN2_271: 5 μM probe, 1 h (FIG. 5B); for % engagement NSUN2_C271: 20 μM probe, 1 h
T1 construct: endogenous in cells; host or cells: 22Rv1
In short: (§1)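 Probe-exposed cells were lysed, IA-DTB-labeled, trypsinized and streptavidin-enriched. Multiplexed TMT quantitation gave engagement ratios versus DMSO, with non-tryptic peptides excluded and intensities normalized to median summed signal.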

[2] = molecular target: T2, NUDT16L1_C88 (Homo sapiens, UniProt Q9BRJ7); details: 22Rv1 cells, relative to DMSO; for % engagement NUDT16L1_88: 5 μM probe, 1 h (FIG. 5B); for % engagement NUDT16L1_C88: 20 μM probe, 1 h
T2 construct: endogenous in cells; host or cells: 22Rv1
In short: as §1

[3] = molecular target: T3, HSD11B2_C264 (Homo sapiens, UniProt P80365); details: 22Rv1 cells, 20 μM probe, 1 h, relative to DMSO
T3 construct: endogenous in cells; host or cells: 22Rv1
T3 sequence (P80365 1-405): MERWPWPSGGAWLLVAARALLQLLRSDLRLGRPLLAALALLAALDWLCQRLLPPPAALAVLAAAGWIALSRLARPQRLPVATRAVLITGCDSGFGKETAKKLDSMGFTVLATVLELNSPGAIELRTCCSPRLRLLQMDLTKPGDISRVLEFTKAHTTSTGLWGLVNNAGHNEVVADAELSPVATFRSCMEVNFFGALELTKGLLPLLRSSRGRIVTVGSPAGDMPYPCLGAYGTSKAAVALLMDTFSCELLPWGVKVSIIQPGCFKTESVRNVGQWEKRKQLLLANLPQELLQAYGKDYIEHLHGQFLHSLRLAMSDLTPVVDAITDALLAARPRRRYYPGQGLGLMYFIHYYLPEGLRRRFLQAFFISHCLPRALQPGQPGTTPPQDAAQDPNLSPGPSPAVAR
In short: as §1

[4] = molecular target: T4, LRPPRC_C571 (Homo sapiens, UniProt P42704); details: 22Rv1 cells, 20 μM probe, 1 h, relative to DMSO
T4 construct: endogenous in cells; host or cells: 22Rv1
In short: as §1

[5] = molecular target: T5, PRXL2A_C88 (Homo sapiens, UniProt Q9BRX8); details: 22Rv1 cells, 20 μM probe, 1 h, relative to DMSO
T5 construct: endogenous in cells; host or cells: 22Rv1
T5 sequence (Q9BRX8 1-229): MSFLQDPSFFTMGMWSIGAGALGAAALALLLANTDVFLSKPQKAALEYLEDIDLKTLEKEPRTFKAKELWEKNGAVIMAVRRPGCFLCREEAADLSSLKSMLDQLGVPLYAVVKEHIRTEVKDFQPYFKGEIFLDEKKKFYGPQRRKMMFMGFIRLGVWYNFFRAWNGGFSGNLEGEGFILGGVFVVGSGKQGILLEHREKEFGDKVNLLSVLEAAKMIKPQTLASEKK
In short: as §1

[6] = molecular target: T6, TTC3_C109 (Homo sapiens, UniProt P53804); details: 22Rv1 cells, 20 μM probe, 1 h, relative to DMSO
T6 construct: endogenous in cells; host or cells: 22Rv1
In short: as §1

[7] = molecular target: T7, UNC13A_C999 (Homo sapiens, UniProt Q9UPW8); details: 22Rv1 cells, 20 μM probe, 1 h, relative to DMSO
T7 construct: endogenous in cells; host or cells: 22Rv1
In short: as §1

T6 sequence (P53804 whole entry): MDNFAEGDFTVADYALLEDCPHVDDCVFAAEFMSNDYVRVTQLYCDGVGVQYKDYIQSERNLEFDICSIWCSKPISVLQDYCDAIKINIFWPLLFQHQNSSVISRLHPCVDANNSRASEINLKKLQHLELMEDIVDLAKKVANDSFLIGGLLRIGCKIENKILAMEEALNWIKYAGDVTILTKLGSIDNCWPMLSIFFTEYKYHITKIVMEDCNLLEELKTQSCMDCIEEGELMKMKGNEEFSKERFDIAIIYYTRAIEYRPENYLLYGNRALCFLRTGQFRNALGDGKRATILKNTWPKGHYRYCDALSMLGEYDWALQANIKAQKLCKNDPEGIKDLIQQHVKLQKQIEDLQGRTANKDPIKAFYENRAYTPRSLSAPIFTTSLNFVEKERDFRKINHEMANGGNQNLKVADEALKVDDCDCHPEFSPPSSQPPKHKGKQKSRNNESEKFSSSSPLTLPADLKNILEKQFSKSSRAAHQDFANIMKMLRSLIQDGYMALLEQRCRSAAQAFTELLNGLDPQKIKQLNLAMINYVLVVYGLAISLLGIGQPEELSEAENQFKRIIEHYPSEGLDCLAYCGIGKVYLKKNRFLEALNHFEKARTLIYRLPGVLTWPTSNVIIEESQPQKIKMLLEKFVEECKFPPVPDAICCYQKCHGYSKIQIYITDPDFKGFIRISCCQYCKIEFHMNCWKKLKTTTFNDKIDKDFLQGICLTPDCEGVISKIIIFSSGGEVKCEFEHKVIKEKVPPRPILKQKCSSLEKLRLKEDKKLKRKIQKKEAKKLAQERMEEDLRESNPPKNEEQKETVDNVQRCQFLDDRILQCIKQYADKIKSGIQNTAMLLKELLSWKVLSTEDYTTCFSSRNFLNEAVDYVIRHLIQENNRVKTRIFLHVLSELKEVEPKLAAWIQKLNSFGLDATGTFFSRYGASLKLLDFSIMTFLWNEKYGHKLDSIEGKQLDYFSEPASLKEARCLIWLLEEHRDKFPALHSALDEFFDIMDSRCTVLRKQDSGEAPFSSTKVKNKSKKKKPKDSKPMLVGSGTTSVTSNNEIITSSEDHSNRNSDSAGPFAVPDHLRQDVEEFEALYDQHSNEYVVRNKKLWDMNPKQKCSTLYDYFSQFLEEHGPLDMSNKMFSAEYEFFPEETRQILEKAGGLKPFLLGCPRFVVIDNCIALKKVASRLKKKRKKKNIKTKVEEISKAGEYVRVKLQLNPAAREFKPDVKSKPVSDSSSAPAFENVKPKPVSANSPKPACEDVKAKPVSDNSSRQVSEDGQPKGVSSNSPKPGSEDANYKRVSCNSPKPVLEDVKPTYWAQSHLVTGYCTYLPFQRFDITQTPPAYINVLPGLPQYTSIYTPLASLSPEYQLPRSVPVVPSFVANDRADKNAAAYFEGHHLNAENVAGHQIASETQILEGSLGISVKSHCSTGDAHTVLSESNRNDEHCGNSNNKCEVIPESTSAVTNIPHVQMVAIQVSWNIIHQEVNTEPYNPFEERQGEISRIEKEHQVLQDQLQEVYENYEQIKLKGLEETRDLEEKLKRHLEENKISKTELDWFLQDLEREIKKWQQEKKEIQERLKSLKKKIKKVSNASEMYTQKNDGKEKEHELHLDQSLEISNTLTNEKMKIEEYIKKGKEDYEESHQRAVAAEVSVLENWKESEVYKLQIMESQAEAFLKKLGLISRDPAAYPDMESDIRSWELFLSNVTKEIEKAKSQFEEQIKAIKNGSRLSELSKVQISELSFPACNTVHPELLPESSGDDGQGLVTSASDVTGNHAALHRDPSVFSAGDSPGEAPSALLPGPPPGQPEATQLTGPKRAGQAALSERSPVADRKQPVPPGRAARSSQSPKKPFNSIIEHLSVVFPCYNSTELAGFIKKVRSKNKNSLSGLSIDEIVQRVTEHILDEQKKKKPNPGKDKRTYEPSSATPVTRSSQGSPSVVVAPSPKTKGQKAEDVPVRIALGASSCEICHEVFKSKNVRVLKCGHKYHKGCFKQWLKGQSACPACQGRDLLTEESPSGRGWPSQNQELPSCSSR
T2 sequence (Q9BRJ7 whole entry): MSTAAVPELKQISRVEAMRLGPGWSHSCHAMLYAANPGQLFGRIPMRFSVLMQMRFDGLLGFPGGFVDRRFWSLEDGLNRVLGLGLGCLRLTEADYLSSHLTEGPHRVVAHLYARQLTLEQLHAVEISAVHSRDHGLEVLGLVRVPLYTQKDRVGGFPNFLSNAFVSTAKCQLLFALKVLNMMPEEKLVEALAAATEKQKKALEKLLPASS
T1 sequence (Q08J23 whole entry): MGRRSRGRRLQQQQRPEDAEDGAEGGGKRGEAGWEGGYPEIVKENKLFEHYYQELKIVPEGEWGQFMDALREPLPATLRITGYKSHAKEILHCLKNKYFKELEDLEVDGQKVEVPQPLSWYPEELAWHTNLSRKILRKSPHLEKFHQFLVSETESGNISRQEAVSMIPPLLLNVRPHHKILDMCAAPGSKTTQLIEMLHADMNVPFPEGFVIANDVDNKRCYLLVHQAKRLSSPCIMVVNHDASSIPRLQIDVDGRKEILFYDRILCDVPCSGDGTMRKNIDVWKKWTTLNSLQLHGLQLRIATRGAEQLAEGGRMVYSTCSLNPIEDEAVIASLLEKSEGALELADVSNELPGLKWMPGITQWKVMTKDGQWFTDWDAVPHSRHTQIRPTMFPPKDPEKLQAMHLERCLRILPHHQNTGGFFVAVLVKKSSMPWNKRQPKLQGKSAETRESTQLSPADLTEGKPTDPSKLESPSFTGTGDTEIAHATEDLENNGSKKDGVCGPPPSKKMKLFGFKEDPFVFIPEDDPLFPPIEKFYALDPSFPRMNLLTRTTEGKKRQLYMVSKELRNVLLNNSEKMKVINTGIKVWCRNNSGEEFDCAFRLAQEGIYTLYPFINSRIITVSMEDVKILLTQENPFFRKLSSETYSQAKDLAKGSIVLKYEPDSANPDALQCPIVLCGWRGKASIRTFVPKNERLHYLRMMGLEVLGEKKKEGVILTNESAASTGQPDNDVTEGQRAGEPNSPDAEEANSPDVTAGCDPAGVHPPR

SMILES | % engagement NSUN2_271 [1] | % engagement NUDT16L1_88 [2] | % engagement HSD11B2_C264 [3] | % engagement LRPPRC_C571 [4] | % engagement NSUN2_C271 [1] | % engagement NUDT16L1_C88 [2] | % engagement PRXL2A_C88 [5] | % engagement TTC3_C109 [6] | % engagement UNC13A_C999 [7]
CC#CC(=O)N1C[C@H](c2ccc(Br)cc2)[C@@H]1C(=O)Nc1cccc2cccnc12 [MY-45B, (2R,3S)-3-(4-bromophenyl)-1-(but-2-ynoyl)-N-(quinolin-8-yl)azetidine-2-carboxamide] | −13.13% | 9.38% |  |  |  |  |  |  | 
C=CC(=O)N1C[C@H](c2ccc(Br)cc2)[C@H]1C(=O)Nc1cccc2cccnc12 [MY-3A, (2S,3S)-1-acryloyl-3-(4-bromophenyl)-N-(quinolin-8-yl)azetidine-2-carboxamide] |  |  | 23.5% | 20% | −8.25% | 14.5% | 95% | 4.5% | 100%
C=CC(=O)N1C[C@@H](c2ccc(Br)cc2)[C@H]1C(=O)Nc1cccc2cccnc12 [MY-1A, (2S,3R)-1-acryloyl-3-(4-bromophenyl)-N-(quinolin-8-yl)azetidine-2-carboxamide] |  |  | 30.5% | 73.5% | 42.25% | 33.25% | 96.25% | 80.5% | 54.5%
C=CC(=O)N1C[C@H](c2ccc(Br)cc2)[C@@H]1C(=O)Nc1cccc2cccnc12 [MY-1B, (2R,3S)-1-acryloyl-3-(4-bromophenyl)-N-(quinolin-8-yl)azetidine-2-carboxamide] | 94.50% | 67.63% | 22% | 7% | 88.75% | 88.5% | 97.25% | 54.5% | 100%
C=CC(=O)N1C[C@H](c2ccc(Br)cc2)[C@H]1C(=O)Nc1cccc2cccnc12 [MY-3B, (2S,3S)-1-acryloyl-3-(4-bromophenyl)-N-(quinolin-8-yl)azetidine-2-carboxamide] |  |  | 90.25% | 5% | −11% | 87.5% | 97.25% | 21.5% | 23.5%

From patent US20250034216A1, “STEREOSELECTIVE COVALENT LIGANDS FOR ONCOGENIC AND IMMUNOLOGICAL PROTEINS” (The Scripps Research Institute, priority 2021, published 2025)
